We go through 17 compounds from PubChem BioAssay AID248 (DTP/NCI, 2004).

Where “and” joins values, the source holds several entries; their conditions need not be identical. Equal entries are not always repeated. Toxic doses and inconclusive results are not listed.

This assay relates to L1210 leukemia ip in BDF1 mice, survival T/C. In words: NCI In Vivo Anticancer Drug Screen. Data for tumor model L1210 Leukemia (intraperitoneal) in B6D2F1 (BDF1) mice. The following applies: endpoint: mean survival time, higher = longer survival. A digest of the protocol:
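Read-out is survival time, reported as the treated-group measurement over the vehicle-control measurement.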

Setting [1] is: dose: 100.0 mg/kg/injection, schedule: Q04DX003 (ip), vehicle: saline with Tween-80.
[2] abbreviates: dose: 200.0 mg/kg/injection, schedule: Q04DX003 (ip), vehicle: saline with Tween-80.
Setting [3] is: dose: 100.0 mg/kg/injection, schedule: Q01DX009 (ip), vehicle: saline with Tween-80.
[4] abbreviates: dose: 200.0 mg/kg/injection, schedule: Q01DX009 (ip), vehicle: saline with Tween-80.
The mark [5] stands for this setting: dose: 400.0 mg/kg/injection, schedule: Q01DX009 (ip), vehicle: saline with Tween-80.
Where [6] appears, read: dose: 75.0 mg/kg/injection, schedule: Q01DX001 (ip), vehicle: saline.
[7] abbreviates: dose: 100.0 mg/kg/injection, schedule: Q01DX009 (ip), vehicle: Klucel (hydroxypropylcellulose) (HPC).
[8] abbreviates: dose: 100.0 mg/kg/injection, schedule: Q04DX003 (ip), vehicle: Klucel (hydroxypropylcellulose) (HPC).
Setting [9] is: dose: 200.0 mg/kg/injection, schedule: Q01DX009 (ip), vehicle: Klucel (hydroxypropylcellulose) (HPC).
The mark [10] stands for this setting: dose: 200.0 mg/kg/injection, schedule: Q04DX003 (ip), vehicle: Klucel (hydroxypropylcellulose) (HPC).
Where [11] appears, read: dose: 400.0 mg/kg/injection, schedule: Q01DX009 (ip), vehicle: Klucel (hydroxypropylcellulose) (HPC).
Where [12] appears, read: dose: 400.0 mg/kg/injection, schedule: Q04DX003 (ip), vehicle: Klucel (hydroxypropylcellulose) (HPC).

Take `N#CC(O)C(Br)(Br)Br` (centres undefined): the T/C is 97 % of control (dose: 5.0 mg/kg/injection, schedule: Q01DX001 (ip), vehicle: saline); 92 % of control (dose: 10.0 mg/kg/injection, schedule: Q01DX001 (ip), vehicle: saline); 101 % of control (dose: 20.0 mg/kg/injection, schedule: Q01DX001 (ip), vehicle: saline).

Consider `COc1cc(C=Nc2ccc3ccccc3c2)ccc1N(CCCl)CCCl`, for which the T/C by setting is: (dose: 0.9 mg/kg/injection, schedule: Q01DX009 (ip), vehicle: carboxymethylcellulose (CMC)) 102 % of control; (dose: 1.3 mg/kg/injection, schedule: Q01DX009 (ip), vehicle: carboxymethylcellulose (CMC)) 118 % of control; (dose: 1.5 mg/kg/injection, schedule: Q01DX009 (ip), vehicle: carboxymethylcellulose (CMC)) 108 % of control; (dose: 3.0 mg/kg/injection, schedule: Q01DX009 (ip), vehicle: carboxymethylcellulose (CMC)) 114 % of control and 117 % of control; (dose: 6.0 mg/kg/injection, schedule: Q01DX009 (ip), vehicle: carboxymethylcellulose (CMC)) 122 % of control; (dose: 20.0 mg/kg/injection, schedule: Q01DX009 (ip), vehicle: carboxymethylcellulose (CMC)) 119 % of control. In addition, the T/C runs as follows: (dose: 30.0 mg/kg/injection, schedule: Q01DX009 (ip), vehicle: carboxymethylcellulose (CMC)) 100 % of control; (dose: 40.0 mg/kg/injection, schedule: Q01DX001 (ip), vehicle: carboxymethylcellulose (CMC)) 151 % of control; (dose: 75.0 mg/kg/injection, schedule: Q01DX001 (ip), vehicle: carboxymethylcellulose (CMC)) 119 % of control.

Regarding `O=C(O)c1ccc(OCCCOc2ccccc2)c(Cl)c1`, the T/C under setting [1] was 96 % of control and the T/C under setting [2] was 93 % of control.

`O=C(Nc1cccc([N+](=O)[O-])c1)Oc1ccc(-c2ccccc2)cc1`: the T/C is, setting by setting: under setting [3], 101 % of control and 103 % of control; (dose: 100.0 mg/kg/injection, schedule: Q04DX002 (ip), vehicle: saline with Tween-80) 97 % of control and 111 % of control; under setting [1], 93 % of control; under setting [4], 100 % of control and 101 % of control; (dose: 200.0 mg/kg/injection, schedule: Q04DX002 (ip), vehicle: saline with Tween-80) 96 % of control and 104 % of control; under setting [2], 93 % of control. Besides, the T/C is 94 % of control under setting [5]; 93 % of control and 103 % of control (dose: 400.0 mg/kg/injection, schedule: Q04DX002 (ip), vehicle: saline with Tween-80); 102 % of control (dose: 400.0 mg/kg/injection, schedule: Q04DX003 (ip), vehicle: saline with Tween-80).

For `CCCC[N+](C)(CCCC)CCCC`, under setting [6], the T/C is 101 % of control.

In the case of `Clc1ccc2c(c1)Nc1ccccc1S2`, the T/C is 88 % of control under setting [7]; 94 % of control under setting [8]; 95 % of control under setting [9]; 98 % of control under setting [10]; 96 % of control under setting [11]; 100 % of control under setting [12].

On to `Nc1cccnc1`, for which the T/C runs as follows: (dose: 5.0 mg/kg/injection, schedule: Q01DX009 (ip), vehicle: saline) 104 % of control; (dose: 10.0 mg/kg/injection, schedule: Q01DX009 (ip), vehicle: saline) 95 % of control; (dose: 20.0 mg/kg/injection, schedule: Q01DX009 (ip), vehicle: saline) 98 % of control.

Take `O=C(Nc1cccc(Cl)c1)c1ccc(Cl)c(Cl)c1`: the T/C (dose: 100.0 mg/kg/injection, schedule: Q04DX002 (ip), vehicle: Klucel (hydroxypropylcellulose) (HPC)) is 110 % of control; the T/C (dose: 200.0 mg/kg/injection, schedule: Q04DX002 (ip), vehicle: Klucel (hydroxypropylcellulose) (HPC)) is 113 % of control; the T/C (dose: 400.0 mg/kg/injection, schedule: Q04DX002 (ip), vehicle: Klucel (hydroxypropylcellulose) (HPC)) was 93 % of control.

Consider `C/C(=N\N=C(/C)c1cccc(Br)c1)c1cccc(Br)c1`, for which the T/C is, setting by setting: under setting [8], 92 % of control; under setting [10], 90 % of control; under setting [12], 95 % of control.

Take `Nc1ccc(C(=O)O)c(O)c1.Nc1ccc(C(=O)O)c(O)c1.[Na+].[O]=[V]`: the T/C (dose: 2.0 mg/kg/injection, schedule: Q01DX015 (ip), vehicle: carboxymethylcellulose (CMC)) is 98 % of control; the T/C (dose: 4.0 mg/kg/injection, schedule: Q01DX015 (ip), vehicle: carboxymethylcellulose (CMC)) was 93 % of control; the T/C (dose: 8.0 mg/kg/injection, schedule: Q01DX015 (ip), vehicle: carboxymethylcellulose (CMC)) was 100 % of control; the T/C (dose: 16.0 mg/kg/injection, schedule: Q01DX015 (ip), vehicle: carboxymethylcellulose (CMC)) was 110 % of control and 113 % of control; the T/C (dose: 32.0 mg/kg/injection, schedule: Q01DX015 (ip), vehicle: carboxymethylcellulose (CMC)) was 101 % of control.

With `Cc1c[n+](Cc2ccccc2)cc(C)n1`, the T/C runs as follows: under setting [6], 105 % of control; (dose: 150.0 mg/kg/injection, schedule: Q01DX001 (ip), vehicle: saline) 98 % of control.

Regarding `N#CC12OC1(C#N)C(=O)C1(Cl)C3C=CC(C3)C1(Cl)C2=O` (centres undefined), the T/C (dose: 12.5 mg/kg/injection, schedule: Q01DX009 (ip), vehicle: saline) was 102 % of control; the T/C (dose: 25.0 mg/kg/injection, schedule: Q01DX009 (ip), vehicle: saline) was 102 % of control; the T/C (dose: 50.0 mg/kg/injection, schedule: Q01DX009 (ip), vehicle: saline) is 96 % of control and 106 % of control.

`COC1OC2COC(c3ccccc3)OC2C(N=Cc2ccccc2)C1O` (centres undefined): the T/C under setting [3] was 97 % of control, the T/C under setting [4] is 101 % of control and the T/C under setting [5] was 98 % of control.

Turning to `O=C(Nc1ccc(S(=O)(=O)F)cc1[N+](=O)[O-])c1ccc2ccccc2c1O`, the T/C reads like this: under setting [7], 104 % of control; under setting [9], 96 % of control; under setting [11], 93 % of control.

Regarding `CC12CCC(=O)C=C1CCC1C2C(=O)CC2(C)C1CCC2(O)C(=O)COC(=O)c1cc([N+](=O)[O-])c(N2CC2)c([N+](=O)[O-])c1` (centres undefined), the T/C is 103 % of control (dose: 50.0 mg/kg/injection, schedule: Q01DX001 (sc), vehicle: steriod suspending solution); 96 % of control (dose: 60.0 mg/kg/injection, schedule: Q01DX015 (ip), vehicle: saline); 100 % of control (dose: 90.0 mg/kg/injection, schedule: Q01DX015 (ip), vehicle: saline); 95 % of control (dose: 100.0 mg/kg/injection, schedule: Q01DX001 (sc), vehicle: steriod suspending solution); 102 % of control (dose: 135.0 mg/kg/injection, schedule: Q01DX015 (ip), vehicle: saline); 101 % of control (dose: 200.0 mg/kg/injection, schedule: Q01DX001 (sc), vehicle: steriod suspending solution). The T/C is 96 % of control (dose: 200.0 mg/kg/injection, schedule: Q01DX015 (ip), vehicle: saline) and 103 % of control (dose: 400.0 mg/kg/injection, schedule: Q01DX001 (sc), vehicle: steriod suspending solution).

As to `CC1=CC(=N\S(=O)(=O)c2ccccc2)/c2ccccc2/C1=N/S(=O)(=O)c1ccccc1`, the T/C was 92 % of control (dose: 25.0 mg/kg/injection, schedule: Q01DX001 (ip), vehicle: saline sonified); 95 % of control (dose: 50.0 mg/kg/injection, schedule: Q01DX001 (ip), vehicle: saline sonified); 95 % of control (dose: 100.0 mg/kg/injection, schedule: Q01DX001 (ip), vehicle: saline sonified).

With `COC(=O)C1(C(=O)OC)C2CC=C(C)CC21` (centres undefined), the T/C is, setting by setting: (dose: 100.0 mg/kg/injection, schedule: Q01DX009 (ip), vehicle: acetone) 100 % of control; (dose: 200.0 mg/kg/injection, schedule: Q01DX009 (ip), vehicle: acetone) 98 % of control; (dose: 400.0 mg/kg/injection, schedule: Q01DX009 (ip), vehicle: acetone) 90 % of control.
